Experimental data published in patent publication US11091546B2, “Optimized PNE-based chimeric receptor T cell switches and uses thereof” (The Scripps Research Institute, priority 2015, dated 2021).

Experiments:
[1] = tested on: RS4;11 cells; assay: Inhibition of sCAR-T cell activity by free PNE peptide; format: cell-based; settings: excess soluble peptide with LCNT switch
Description: The non-binding mutated version of the PNE (PNE-X; bar farthest to the right) was, again, used as a control. […] Alanine mutated free peptide (PepX) has no effect. Only the cognate free peptide epitope inhibits cytotoxicity (see FIGS. 26D-F). FIG. 26E-F show live cell imaging (Incucyte, Essen).
Specificity of sCAR-T cell activation is essential to switch-based control.
One of the great advantages of the sCART cell system is that the activity can be controlled. This can be achieved by either dose escalation of the switches or by stopping switch dosing. In the event that the cessation of switch dosing is not an acute enough response to halt sCART cell activity, immunological synapses are disrupted by the administration of free peptide.
Specificity of sCAR-T cell activation is a critical design consideration for switch-based control.

[2] = tested on: RS4;11 (CD19 positive); format: cell-based, human
Protocol: Activity was assessed against NALM-6 (CD19^+), RS4;11 (CD19^+), or RPMI-8226 (CD19^−) (Table 2). The activity of the IgG (FcNull) switch was assessed against RS4;11 (CD19^+), or K562 (CD19^−) (Table 2). The activity of the C-terminal switch was assessed against RS4;11 (CD19^+), or K562 (CD19^−) (Table 4).
sCAR-T cells were co-cultured (96-well plate round bottom; 20-24h; 37° C.; 5% CO2) with RS4;11 (CD19^+) or K562 (CD19^−) cells at a ratio of 10 sCAR-T cells to 1 RS4;11/K562 cell (110,000 cells in total) in 100 uL of RPMI-1640 supplemented with 5% heat inactivated fetal calf serum (Thermo), 1% penicillin-streptomycin (Gibco), 1% L-Glutamine (Gibco), 1 mM sodium pyruvate (Gibco) and 1% non-essential amino acids (Gibco). After 24 hours, each plate was centrifuged at 400×g for 5 minutes at 4° C. To measure target cell lysis, the intracellular protein lactate dehydrogenase (LDH) was measured in the cytotoxicity assay supernatants from the co-cultured cells using the CytoTox 96® Non-Radioactive Cytotoxicity Assay kit (Promega). To measure the effector responses of the sCART cells in vitro, cytokine levels were measured in the cytotoxicity assay supernatants using the Cytometric Bead Array (CBA) Human Th1/Th2 Cytokine Kit II (BD). […]
The GCN4 CAR design was therefore modified to contain the CD8 hinge region (used in CART-19), which has an extracellular CAR domain of approximately 80 Å, and an IgG4 hinge with an extracellular CAR domain of approximately 15-30 Å. An additional construct was developed where a mutation was introduced into the IgG4 hinge that allows for spontaneous disulphide bridge formation between receptor molecules (IgG4m). […] Briefly, activated PBMC were transduced with lentivirus (SEQ ID: 1) containing the anti-PNE CAR construct (SEQ ID: 180) with the CD8 (SEQ ID: 68), IgG4 (SEQ ID: 70) and IgG4m (SEQ ID: 71) hinge domains.
Monovalent and bivalent combinations of these switches were expressed in mammalian protein expression systems (HEK293 or CHO cells) and purified using protein-G columns. Switches were used in cytotoxicity assays at a dose titration within the range of 10 nM to 0.0001 nM. The activity of each switch combination was tested in vitro in the General cytotoxicity assays where LDH release, cytokine production and sCART cell activation were compared (FIGS. 11A-11C).
CAR-T or target cells were incubated with 1 pM to […] of switch in FACS buffer (PBS, 1% FCS, 2 mM EDTA) for 30 minutes at 4° C. before being washed twice and then incubated with the PE-conjugated goat-anti-human kappa antibody (1:100). Cells were washed two times and analyzed using the Accuri flow cytometer (BD). CAR-T cell activity was determined using the CytoTox 96® Non-Radioactive Cytotoxicity Assay (Promega). CAR-T cells were incubated with target cells in the presence of switch for 20-24 hours at 37° C. in complete RPMI with 5% FCS. At the end of the assay, 30 μL of cell free supernatant was added to 30 μL of the LDH assay reagent in a 96-well plate and incubated for 30 minutes at room temperature in the dark; 30 μL of stop solution was added before the plate was read at OD495.

[3] = tested on: Nalm-6^Luc/GFP cells; assay: Nalm-6 Luc/GFP leukemia xenograft; format: in vivo; settings: for tumor burden (IVIS): 0.5 mg/kg I.V. every other day for 10 days
Protocol: NSG mice were inoculated with CD19^+ Nalm-6^GFP/Luc cells. Six days later, 40×10^6 sCAR-T cells were delivered IV and switch dosing commenced every other day at 0.5 mg/kg for 10 days. Tumor burden was followed by luminescence after injection of luciferin and imaged on an in vivo imaging system (IVIS; PerkinElmer, Waltham, Mass., USA).
Asterisks indicate significance from LCNT Fab group. Data are represented as means±SEM, and statistical significance was calculated using the 2-way ANOVA with Bonferroni's post-test (B & E; shown for final time-point only) or by one-tailed student's t-test (C & F) where *=p<0.05, **=p<0.01 and ***=p<0.001.
NSG mice were inoculated with Nalm-6^GFP/Luc as described in FIG. 28. […] A fourth group consisted of two cohorts (n=3) of mice injected I.V. with sCAR-T cells without (−) LCNT Fab switch. LCNT Fab dosing in the indicated group was carried out daily at 0.5 mg/kg after the initial T cell infusion. Luminescence was measured at 6 h and subsequently every 24 h as indicated. Cohorts were sacrificed for analysis immediately following IVIS imaging. […] Gray lines indicate tumor burden in PBS and sCAR-T cell—LCNT Fab controls. […] Data are represented as means±SEM, and statistical significance was calculated using the one-tailed student's t-test (C & D) where *=p<0.05, **=p<0.01 and ***=p<0.001.
NSG mice were inoculated with Nalm6^GFP/Luc and six days later engrafted with short-dimeric sCAR-T cells as described in FIG. 29. […] Dosing was carried out for 15 d starting at day 6 (corresponding with sCAR-T cell infusion) as indicated by gray shading. Control groups CART-19 and PBS received no switch. The NS group received sCAR-T cells but no switch. Open circles denote the death of individual mice without evidence of tumor burden and may reflect GVHD. Triangles in PBS, NS and q.a.d. group indicate death due to increasing tumor burden. […] (19) indicates CART-19. […] (19) indicates CART-19. […] Triangles indicate the death of individual mice with significant tumor burden. The single mouse death in the 0.05 mg/kg group occurred while tumor burden was decreasing. […] Statistical significance was calculated using the one-tailed student's t-test (B, C & E) where *=p<0.05, **=p<0.01 and ***=p<0.001.
The different sCAR designs were tested in a xenograft model harboring luciferized NALM-6 (CD19+, CD80−, CD86−) cells. 1 mg/kg monovalent switch “A” was administered along with sCAR cells. […] Optimized hinge improved response. Short hinge CARs have faster clearance. Short, dimeric hinge CARs have improved persistence. Tumor burden was visualized with IVIS imaging. Experiments are repeated with a humanized scFv and bivalent switches.
Activity of the switchable CAR-T cell platform in vivo was evaluated via tumor regression in a Nalm-6^Luc/GFP leukemia xenograft model in immunodeficient NOD scid gamma (NSG) mice. These mice without treatment succumb to disease within 21 days. The impact of CAR hinge design on in vivo efficacy was determined using mice inoculated with Nalm-6^Luc/GFP, followed by I.V. injection of long, short, or short-dimeric sCAR-T cells 6 days later. The LCNT Fab was dosed I.V. (0.5 mg/kg) every other day for 10 days and tumor regression was followed by in vivo imaging (IVIS) of the luciferase signal from Nalm-6^Luc/GFP cells (FIG. 29A).
The effect of switch grafting position on the control of tumor burden was determined. As with the previous model, short-dimeric CAR-T cells were injected 6 days after tumor inoculation and mice were treated every other day (starting at day 6) with 0.5 mg/kg LCNT, HCNT, NTBV, LCC1, or HCCT Fab switches (FIG. 29D).
To determine the proliferation and localization of sCAR-T cell cytotoxicity during this time interval, mice were sorted into 5 cohorts per treatment regimen and analyzed at 8, 24, 48, 72, and 96 h after treatment with short-dimeric sCAR-T cells+LCNT Fab switch or with conventional CART-19 and no switch. […]

[4] = tested on: Nalm-6^Luc/GFP cells; assay: Nalm-6 Luc/GFP leukemia xenograft; format: in vivo
[5] = target: GCN4 epitope (7P14P) (Saccharomyces cerevisiae, UniProt P03069); settings: GCN4 epitope (7P14P) NYHLENEVARLKKL; read-out: dissociation constant (Kd); cited from earlier work
[6] = retreatment 0.5 mg/kg for 10 days

NYHLENEVARLKKL (CAR binding region - yeast transcription factor GCN4) [PNE]
effect of free peptide on sCAR-T cell activity [1]: fully inhibited

anti-CD19 Fab LCNT: FMC63 anti-CD19 Fab, GCN4 peptide on N-terminus of light chain (SEQ ID 36 & 29)
EC50 [2]: 0.9 pM | increase in potency of cytotoxicity [2]: 2.8 fold | increase in maximum target cell lysis ([2]; short-dimeric sCAR vs CD8-based long hinge): > 80% | serum IL-2, INFγ, TNFα at 24 h vs CART-19 ([3]; 0.05 mg/kg every day): significantly lower than CART-19 | duration of sustained tumor regression after dosing had stopped ([3]; 0.5 mg/kg every day or every other day for 15 days): > 100 days | T cell phenotype in peripheral blood (CD45RA, CD62L) ([3]; 0.05 and 0.5 mg/kg, vs […] group): significantly larger populations of CD45RA^−CD62L^+ central memory cells | T cell counts in peripheral blood ([3]; day 17, short-dimeric sCAR-T cells, 0.5 mg/kg every other day): greatest T cell expansion | tumor burden (IVIS) ([3]; long hinge (CD8) sCAR-T cells): minimal impact on disease | time to decrease tumor signal to levels equivalent to CART-19 [3, 6]: ≤ 5 days | tumor-free time after final dose of second dosing period [3, 6]: > 35 days | time of peak human IL-2 in peripheral blood ([3]; sCAR-T + daily 0.5 mg/kg LCNT Fab, or CART-19 without switch): 48 h | tumor burden (IVIS) ([3]; short (IgG4) sCAR-T cells): significant decrease in tumor burden | tumor burden (IVIS) ([3]; short-dimeric (IgG4m) sCAR-T cells): significant decrease in tumor burden | tumor burden (IVIS), switch graft position comparison ([3]; short-dimeric sCAR-T cells, 0.5 mg/kg every other day from day 6): greatest reduction in tumor burden | time to limit of luminescence detection ([3]; short-dimeric sCAR-T cells, daily 0.5 mg/kg): ≤ 96 h | day on which tumor burden reached the limit of detection ([4]; 0.05 mg/kg every day for 10 d): ≤ 16 days | day of tumor relapse ([4]; after 0.05 mg/kg every day for 10 d): 30 days

B1: 52SR4: high affinity anti-GCN4 (7P14P) scFv used as sCAR extracellular domain (protein)
scFv: DAVVTQESALTSSPGETVTLTCRSSTGAVTTSNYASWVQEKPDHLFTGLIGGTNNRAPGVPARFSGSLIGDKAALTITGAQTEDEAIYFCVLWYSDHWVFGGGTKLTVLGGGGGSGGGGSGGGGSGGGGSDVQLQESGPGLVAPSQSLSITCTVSGFLLTDYGVNWVRQSPGKGLEWLGVIWGDGITDYNSALKSRLSVTKDNSKSQVFLKMNSLQSGDSARYYCVTGLFDYWGQGTTLTVSS
Kd [5]: 5.2 pM
